Measurements: BindingDB's records for doi:10.1016/s0960-894x(99)00012-8 (Nippon Steel, 1999)

Assays:
[1] = Inhibitory activity against bovine pancreatic alpha-chymotrypsin (alpha-CT)
[2] = Inhibitory activity against porcine pancreatic trypsin (TRP)
[3] = Inhibitory activity against porcine pancreatic elastase (PPE)
[4] = Inhibitory activity against porcine pancreatic trypsin (TRP); remark: listed apart in the source

SMILES: CC(C)(C(=O)OC(=O)C(C)(C)C(NC(=O)c1ccc(C#N)cc1)C1CC=CCC1)C(NC(=O)c1ccc(C#N)cc1)C1CC=CCC1 (centres undefined) [2-(4-cyanophenylcarboxamido)-2-cyclohex-3-enyl-1,1-dimethylpropanoic anhydride]
- IC50 [1]: 220 nM
- IC50 [2]: 1600 nM
- IC50 [3]: 180 nM

SMILES: CCCCCC(NC(=O)c1ccccc1)C(C)(C)C(=O)OC(=O)C(C)(C)C(CCCCC)NC(=O)c1ccccc1 (centres undefined) [1,1-dimethyl-2-phenylcarboxamidooctanoic anhydride]
- IC50 [1]: 31 nM
- IC50 [2]: 3900 nM
- IC50 [3]: 61 nM

SMILES: CC(C)(C(=O)OC(=O)C(C)(C)C(NC(=O)c1ccc(C#N)cc1)c1ccccc1)C(NC(=O)c1ccc(C#N)cc1)c1ccccc1 (centres undefined) [2-(4-cyanophenylcarboxamido)-1,1-dimethyl-2-phenylpropanoic anhydride]
- IC50 [1]: 15 nM
- IC50 [4]: 1800 nM
- IC50 [3]: 210 nM

SMILES: CCCCCC(NC(=O)CCC)C(C)(C)C(=O)OC(=O)C(C)(C)C(CCCCC)NC(=O)CCC (centres undefined) [1,1-dimethyl-2-propylcarboxamidooctanoic anhydride]
- IC50 [1]: 810 nM
- IC50 [2]: 18000 nM
- IC50 [3]: 55 nM

SMILES: CCCCCCC(NC(=O)c1ccccc1)C(C)(C)C(=O)OC(=O)C(C)(C)C(CCCCCC)NC(=O)c1ccccc1 (centres undefined) [1,1-dimethyl-2-phenylcarboxamidononanoic anhydride]
- IC50 [1]: 44 nM
- IC50 [2]: 3300 nM
- IC50 [3]: 180 nM

SMILES: CCCC(=O)NC(CCc1ccccc1)C(C)(C)C(=O)OC(=O)C(C)(C)C(CCc1ccccc1)NC(=O)CCC (centres undefined) [1,1-dimethyl-4-phenyl-2-propylcarboxamidopentanoic anhydride]
- IC50 [2]: 1200 nM

SMILES: CCCCC(NC(=O)c1ccccc1)C(C)(C)C(=O)OC(=O)C(C)(C)C(CCCC)NC(=O)c1ccccc1 (centres undefined) [1,1-dimethyl-2-phenylcarboxamidoheptanoic anhydride]
- IC50 [1]: 5.3 nM
- IC50 [2]: 2900 nM
- IC50 [3]: 34 nM

SMILES: CC(C)(C(=O)OC(=O)C(C)(C)C(CCc1ccccc1)NC(=O)c1ccccc1)C(CCc1ccccc1)NC(=O)c1ccccc1 (centres undefined) [1,1-dimethyl-4-phenyl-2-phenylcarboxamidopentanoic anhydride]
- IC50 [1]: 18 nM
- IC50 [2]: 2700 nM
- IC50 [3]: 64 nM

SMILES: Cc1ccccc1C(NC(=O)c1ccc(C#N)cc1)C(C)(C)C(=O)OC(=O)C(C)(C)C(NC(=O)c1ccc(C#N)cc1)c1ccccc1C (centres undefined) [2-(4-cyanophenylcarboxamido)-1,1-dimethyl-2-(2-methylphenyl)propanoic anhydride]
- IC50 [1]: 190 nM
- IC50 [4]: 18000 nM
- IC50 [3]: 2100 nM

SMILES: CC(C)(C(=O)OC(=O)C(C)(C)C(CCc1ccccc1)NC(=O)c1ccc(C#N)cc1)C(CCc1ccccc1)NC(=O)c1ccc(C#N)cc1 (centres undefined) [[2,2-dimethyl-3-(N-(4-cyanobenzoyl)aminoi)-5-phenylpentanoic anhydride]]
- IC50 [1]: 2.1 nM
- IC50 [4]: 300 nM
- IC50 [3]: 36 nM

SMILES: CC(C)(CNC(=O)c1ccccc1)C(=O)OC(=O)C(C)(C)CNC(=O)c1ccccc1 [1,1-dimethyl-2-phenylcarboxamidopropanoic anhydride]
- IC50 [1]: 140 nM
- IC50 [2]: 990 nM
- IC50 [3]: 2600 nM

SMILES: CCC(NC(=O)c1ccccc1)C(C)(C)C(=O)OC(=O)C(C)(C)C(CC)NC(=O)c1ccccc1 (centres undefined) [1,1-dimethyl-2-phenylcarboxamidopentanoic anhydride]
- IC50 [1]: 72 nM
- IC50 [2]: 2200 nM
- IC50 [3]: 210 nM

SMILES: CC(C)(C(=O)OC(=O)C(C)(C)C(NC(=O)c1ccc(C#N)cc1)c1ccccc1Cl)C(NC(=O)c1ccc(C#N)cc1)c1ccccc1Cl (centres undefined) [2-(2-chlorophenyl)-2-(4-cyanophenylcarboxamido)-1,1-dimethylpropanoic anhydride]
- IC50 [1]: 250 nM
- IC50 [4]: 8200 nM
- IC50 [3]: 1100 nM

SMILES: CCCC(NC(=O)c1ccccc1)C(C)(C)C(=O)OC(=O)C(C)(C)C(CCC)NC(=O)c1ccccc1 (centres undefined) [1,1-dimethyl-2-phenylcarboxamidohexanoic anhydride]
- IC50 [1]: 49 nM
- IC50 [2]: 8800 nM
